Laboratory results taken from patent publication US20080227866A1, “Hydroxyphenylalkadiones and Their Use for Masking Bitter Taste and/or for Intensifying Sweet Taste” (SYMRISE GMBH & CO. KG, priority 2005, published 2008).

Legend:
[1] = described in DE 2 161,528; cited from earlier work
[2] = Bitterness reduction in a bitter principle solution, rated by a group of experts (caffeine); format: in vivo; settings: 100 ppm substance in aqueous 500 ppm caffeine; for % reduction in the bitter impression: calculated from the average panel values; for Bitter impression (1-10) with: panel mean ± 95% confidence interval
Procedure: In order to quantify the reduction in the bitter impression, the bitterness of an aqueous bitter principle solution and of a sample which contained the same amount of bitter principle and a varying amount of the compound given by way of example was determined by a group of experts ([…]). The evaluation was made as a calculation of the reduction (in %) of the bitter impression from the average values of the estimations of the bitter principle solution and of the solutions containing bitter principle and compound given by way of example. 2,4-Dihydrobenzoic acid (2,4-DHB) was used as a comparison from U.S. Pat. No. 5,643,941. HED means homoeriodictyol sodium salt according to EP 1 258 200 B1.
(§1) Table: Bitterness of a bitter principle solution and of a solution containing bitter principle and a compound given by way of example (2,4-DHB=2,4-dihydroxybenzoic acid, HED=homoeriodictyol sodium salt according to EP 1 258 200 B1). “Testers positive” means the number of testers who were able to detect masking; the 95% confidence intervals are stated as errors; p<x means the significance according to the Student t test method (cf. statistics textbooks), n.s. means not significant.

[3] = Intensification of the sweet impression of a sucrose solution, rated by a group of experts; format: in vivo; settings: 100 ppm test compound in 5 wt. % sucrose; for % intensification of the sweet impression: calculated from the average panel values; for Sweet impression (1-10) of a 5% strength sucrose solution with Test substance: panel mean ± standard deviation; for number of testers who found the test solution sweeter: second figure in brackets (total/positive)
Procedure: In order to quantify the intensification of the sweet impression, the sweetness of a solution containing 5 wt. % of sucrose and of a sample which contained 5 wt. % of sucrose and 100 ppm of the test compound was determined by a group of experts (classification 0 [not sweet] to 10 [extremely sweet]). The evaluation was made as a calculation of the intensification (in %) of the sweet impression from the average values of the estimations of the sucrose solution and of the solution containing sucrose and compound 2.
Table: Sweetness (a) of a sucrose solution and (b) of a solution containing sucrose and test substance; the standard deviations are stated as errors. In the last column, the total number of testers is stated against the number of testers who found the test solution sweeter.

[4] = Bitterness reduction in a bitter principle solution, rated by a group of experts (quinine hydrochloride); format: in vivo; settings: 100 ppm substance in aqueous 5 ppm quinine hydrochloride
Procedure: In order to quantify the reduction in the bitter impression, the bitterness of an aqueous bitter principle solution and of a sample which contained the same amount of bitter principle and a varying amount of the compound given by way of example was determined by a group of experts (classification 0 [not bitter] to 10 [extremely bitter]). The evaluation was made as a calculation of the reduction (in %) of the bitter impression from the average values of the estimations of the bitter principle solution and of the solutions containing bitter principle and compound given by way of example. 2,4-Dihydrobenzoic acid (2,4-DHB) was used as a comparison from U.S. Pat. No. 5,643,941. HED means homoeriodictyol sodium salt according to EP 1 258 200 B1.
as §1

SMILES	antihypertensive action [1]	Testers positive (number of testers who were able to detect masking) [2]	% reduction in the bitter impression [2]	Bitter impression (1-10) with [2]	% intensification of the sweet impression [3]	Sweet impression (1-10) of a 5% strength sucrose solution with Test substance [3]	number of testers who found the test solution sweeter [3]	Testers positive (number of testers who were able to detect masking) [4]	% reduction in the bitter impression ([4]; calculated from the average panel values)	Bitter impression (1-10) with ([4]; panel mean ± 95% confidence interval)
COc1cc(CCC(=O)C2C(=O)CCC2=O)ccc1O [compound 9, 2-(3-[4-hydroxy-3-methoxyphenyl]propionyl)-cyclopentane-1,3-dione]	weak antihypertensive agent	–	–	–	–	–	–	–	–	–
COc1ccc(CCC(=O)CC(C)=O)cc1O [compound 11, 6-(3-hydroxy-4-methoxyphenyl)hexane-2,4-dione]	–	11	17%, n.s.	4.2 ± 0.8	+28%	6.6 ± 1.2	13	–	–	–
COc1cc(CCC(=O)CC(C)=O)ccc1O [compound 4, 6-(4-hydroxy-3-methoxyphenyl)hexane-2,4-dione]	–	15	34%,	3.9 ± 0.8	+13%	5.3 ± 1.6	9	10	21%,	1.3 ± 0.8
O=C(O)c1ccc(O)cc1O [2,4-DHB, 2,4-dihydroxybenzoic acid, reference compound]	–	9	3%, n.s.	5.0 ± 1.0	–	–	–	–	–	–
COc1ccc(/C=C/C(=O)CC(C)=O)cc1O [compound 10, (5E)-6-(3-Hydroxy-4-methoxyphenyl)hex-5-ene-2,4-dione]	–	12	23%	4.6 ± 0.9	–	–	–	–	–	–
COc1cc(/C=C/C(=O)CC(C)=O)ccc1O [compound 1, (5E)-6-(4-hydroxy-3-methoxyphenyl)hex-5-ene-2,4-dione]	–	9	21%,	5.1 ± 1.0	–	–	–	–	–	–
